We go through 23 compounds from patent US7888079B2, “Nε-acyl-L-lysine-specific aminoacylase” (Ajinomoto Co., Inc., priority 2005, dated 2011).

Like-named read-outs stand apart in the source and are kept apart here.

The test system of assay [1] is aminoacylase of the present invention (Nε-acyl-L-lysine-specific aminoacylase). Kind of assay: Effect of various inhibitors on the hydrolyzing activity of the aminoacylase. The format is biochemical, Streptomyces mobaraensis. As to conditions: hydrolysis activity where nothing was added = 100. On the procedure: The activity of the enzyme of the present invention can be measured based on a method of measuring Nε-acetyl-L-lysine hydrolysis activity. For example, the activity of the enzyme of the present invention may be measured by incubating the enzyme with a defined concentration of Nε-acetyl-L-lysine as a substrate for 30 minutes at 37° C. (50 mM Tris-HCl buffer, pH 8.0), and assaying the released L-lysine. 1 U (unit) of the enzyme of the present invention is defined as the amount of the enzyme required to hydrolyze 1 micromole of Nε-acetyl-L-lysine per hour when incubated for 30 minutes at 37° C. (50 mM Tris-HCl buffer, pH 8.0) with 4 mM Nε-acetyl-L-lysine as the substrate, and the released L-lysine was assayed by the acidic ninhydrin method.
The activity of the enzyme of the present invention was measured by incubating the enzyme (50 mM Tris-HCl buffer, pH 8.0) for 30 minutes at 37° C. with a defined concentration of Nε-acetyl-L-lysine as the substrate, and assaying the released L-lysine. 1 U (unit) of the enzyme of the present invention is defined as the amount of the enzyme required to hydrolyze 1 micromole of Nε-acetyl-L-lysine per hour at 37° C. for 30 minutes in 50 mM Tris-HCl buffer, pH 8.0 with 4 mM of Nε-acetyl-L-lysine as the substrate, and the released L-lysine was assayed by acidic ninhydrin method.
The effects of various inhibitors on hydrolysis activity were compared by the measurement methods described above using a purified enzyme obtained as in Example 2. In Table 2, the enzyme activity is presented as a relative value (%) given 100 as hydrolysis activity where nothing was added.

Assay [2] shares this test system. Kind of assay: Effects of metal ions on hydrolysis activity of enzyme dialyzed against 0-phenanthroline solution. The format is biochemical, Streptomyces mobaraensis. To be noted: final concentration 0.1 mM.
The subject of another assay is S. mobaraensis enzyme. In words: Hydrolysis activity on Nε-acyl-L-lysines with various acyl groups, S. mobaraensis enzyme. The format is biochemical, Streptomyces mobaraensis. As to conditions: for Specific activity, S. mobaraensis enzyme: 1-hour reaction, 50 mM Tris-HCl buffer pH 8.2, 37° C. The protocol:
(§1) The reactivity of the enzyme of the present invention on various N-acetyl-L-amino acids (final concentration 4 mM) was studied to investigate substrate specificity. In Tables 4 and 5 below, the amount (micro mole) of substrate (acetyl-L-amino acid) hydrolyzed per 1 mg of enzyme protein in a 1-hour reaction in 50 mM Tris-HCl buffer (pH 8.2) at 37° C. is given as specific activity.
(§2) Substrate specificity was investigated based on hydrolysis activity on Nε-acyl-L-lysines with various acyl groups.

In assay [3] the test system is A. pestifer enzyme. To be noted: values marked * from Chibata et al. (1970); cited from earlier work.
The subject of assay [4] is enzyme of the present invention (aminoacylase). Kind of assay: Reactivity of the enzyme on various N-acetyl-L-amino acids (substrate specificity). The format is biochemical, Streptomyces mobaraensis. As to conditions: for Specific activity (relative activity): relative to Nε-acetyl-L-Lys = 100%; for Specific activity: 1-hour reaction, 50 mM Tris-HCl buffer pH 8.2, 37° C., ND: below detection limit. On the procedure: as §1

Assay [5] deals with A. pestifer enzyme. In words: Hydrolysis activity on Nε-acyl-L-lysines with various acyl groups, A. pestifer enzyme. The format is biochemical, Achromobacter pestifer.
From the text: as §2

[6] abbreviates: hydrolysis activity with nothing added = 100.

On to `O=C(O)CN(CCN(CC(=O)O)CC(=O)O)CC(=O)O` [EDTA], for which the “Relative activity (%)” value in assay [1] (added concentration 1 mM) is 74.6%.
As to `O=S(=O)([O-])[O-].[Mg+2]` [MgSO4], the “Relative activity (%)” value in assay [2] (setting [6]) is on record as 121.1%.
For `O=C(O)c1cc[c]([Hg][Cl])cc1` [PCMB], the “Relative activity (%)” value in assay [1] (added concentration 1 mM) worked out at 86.1%.
The same measure, in the same setting: the figure for `N[C@@H](CS)C(=O)O` [L-cysteine] is 77.6%.
`N[C@@H](CCCCNC(=O)c1ccccc1)C(=O)O` [Nε-benzoyl-L-Lys]: in the assay on S. mobaraensis enzyme, the “Specific activity, S. mobaraensis enzyme” value was 1,380 μmol/mg. In addition, the “Specific activity, A. pestifer enzyme” value with A. pestifer enzyme [3] is 15,000* μmol/mg.
As for `OCCS` [β-mercaptoethanol], the “Relative activity (%)” value in assay [1] (added concentration 10 mM) turned out to be 87.5%.
Turning to `O=S(=O)([O-])[O-].[Fe+2]` [FeSO4], the “Relative activity (%)” value in assay [2] (setting [6]) came to 85.3%.
On the same count and under the same terms, the figure for `[Ca+2].[Cl-].[Cl-]` [CaCl2] is 110.3%.
`[Cl-].[Cl-].[Co+2]` [CoCl2]: the “Relative activity (%)” value in assay [2] is reported as 140.8%.
Consider `O=S(=O)([O-])[O-].[Zn+2]` [ZnSO4], for which the “Relative activity (%)” value in assay [2] (setting [6]) is 103.3%.
Regarding `N[C@@H](CCCCNC(=O)CCl)C(=O)O` [Nε-chloroacetyl-L-lys], in the assay on S. mobaraensis enzyme, the “Specific activity, S. mobaraensis enzyme” value is 1,030 μmol/mg. Besides, the “Specific activity, A. pestifer enzyme” value with A. pestifer enzyme [3] is reported as 5,300* μmol/mg.
In the case of `NC(=O)CI` [Iodoacetamide], the “Relative activity (%)” value in assay [1] (added concentration 1 mM) was found to be 83.1%.
Regarding `O[C@@H](CS)[C@@H](O)CS` [DTT], the “Relative activity (%)” value in assay [1] (added concentration 1 mM) stood at 64.7%.
Same read-out and setting: the figure for `N[C@@H](CCC(=O)N[C@@H](CS)C(=O)NCC(=O)O)C(=O)O` [GSH] is 80.0%.
With `CCCCCCCCCCCC(=O)N[C@@H](CCCCN)C(=O)O` [Nα-lauroyl-L-Lys], in the assay with S. mobaraensis enzyme, the “hydrolysis activity of the enzyme of the present invention (in words)” value was “no hydrolysis activity” and the “Specific activity, S. mobaraensis enzyme” value is 0 µmol/mg.
Regarding `O=S(=O)([O-])[O-].[Cu+2]` [CuSO4], in assay [2] (setting [6]), the “Relative activity (%)” value is reported as 67.2%.
As for `CC(=O)N[C@@H](CCCCN)C(=O)O` [Nα-acetyl-L-Lys], the “Specific activity (relative activity)” value in assay [4] stood at 2.1%. Moreover, in assay [4] (substrate 4 mM), the “Specific activity” value amounted to 70 µmol/mg.
For `O=S(=O)([O-])[O-].[Mn+2]` [MnSO4], the “Relative activity (%)” value in assay [2] (setting [6]) stood at 114.1%.
For `CC(=O)NCCCC[C@H](N)C(=O)O` [Nε-acetyl-L-Lys], the “Specific activity (relative activity)” value in assay [4] is reported as 100%. Moreover, in assay [4] (substrate 4 mM), the “hydrolysis activity on N-acetyl-L-amino acids (in words)” value is given as “strong hydrolysis activity” and the “Specific activity” value turned out to be 3370 µmol/mg. Also, the “Specific activity, S. mobaraensis enzyme” value with S. mobaraensis enzyme is 3,370 μmol/mg. Also, the “Specific activity, A. pestifer enzyme” value with A. pestifer enzyme [3] was 2,700* μmol/mg.
Turning to `CCCCCCCCCCCC(=O)NCCCC[C@H](N)C(=O)O` [Nε-lauroyl-L-Lys], the “Specific activity, S. mobaraensis enzyme” value with S. mobaraensis enzyme came to 28 µmol/mg. For the same compound, in the assay on A. pestifer enzyme [5], the “hydrolysis activity of the enzyme from A. pestifer (in words)” value was “very little hydrolysis activity”. For the same compound, in the assay with A. pestifer enzyme [5] (value without literature mark), the “Specific activity, A. pestifer enzyme” value came out at 0.4 µmol/mg.
Consider `CCCCCCCC(=O)NCCCC[C@H](N)C(=O)O` [Nε-octanoyl-L-Lys], for which the “Specific activity, S. mobaraensis enzyme” value in the assay with S. mobaraensis enzyme stood at 570 µmol/mg. For the same compound, the “Specific activity, A. pestifer enzyme” value in the assay with A. pestifer enzyme [3] is given as 12,500* μmol/mg.
`c1cnc2c(c1)ccc1cccnc12` [0-phenanthroline]: the “Relative activity (%)” value in assay [1] (added concentration 1 mM) is listed as 10.3%.
For `[Cl-].[K+]` [KCl], the “Relative activity (%)” value in assay [2] (setting [6]) worked out at 110.2%.
